# Experimental data taken from ChEMBL document CHEMBL4007454 (J Med Chem, 2017).
# Columns and labels:
# [1] = Intrinsic clearance in human hepatocytes assessed per million cells at 1 uM after 180 mins by LC-MS/MS analysis; assay type: ADME, cell-based, Hepatocyte; conditions: read-out: CLH
# [2] = Intrinsic clearance in rat hepatocytes assessed per million cells at 1 uM after 180 mins by LC-MS/MS analysis; assay type: ADME, cell-based, Hepatocyte; conditions: read-out: CLH
# [3] = AUC (0 to 8 hrs) in Han-Wistar rat at 2 mg/kg, iv measured after 2 to 480 mins by LC-MS/MS analysis; assay type: ADME, organism-based; design: time < 8 hr, dose 2 mg/kg, route intravenous; conditions: in vivo
# [4] = Initial concentration in Han-Wistar rat at 2 mg/kg, iv measured after 2 to 480 mins by LC-MS/MS analysis; assay type: ADME, organism-based; conditions: in vivo
# [5] = Half life in Han-Wistar rat at 2 mg/kg, iv measured after 2 to 480 mins by LC-MS/MS analysis; assay type: ADME, organism-based; conditions: in vivo
# [6] = MRT in Han-Wistar rat at 2 mg/kg, iv measured after 2 to 480 mins by LC-MS/MS analysis; assay type: ADME, organism-based; conditions: in vivo
# [7] = Clearance in Han-Wistar rat at 2 mg/kg, iv measured after 2 to 480 mins by LC-MS/MS analysis; assay type: ADME, organism-based; conditions: in vivo
# [8] = AUC (0 to 8 hrs) in Han-Wistar rat at 10 mg/kg, po measured after 15 to 480 mins by LC-MS/MS analysis; assay type: ADME, organism-based; design: dose 10 mg/kg, time < 8 hr, route oral; conditions: in vivo
# [9] = Cmax in Han-Wistar rat at 10 mg/kg, po measured after 15 to 480 mins by LC-MS/MS analysis; assay type: ADME, organism-based; conditions: in vivo, read-out: C0
# [10] = Tmax in Han-Wistar rat at 10 mg/kg, po measured after 15 to 480 mins by LC-MS/MS analysis; assay type: ADME, organism-based; conditions: in vivo
# [11] = MRT in Han-Wistar rat at 10 mg/kg, po measured after 15 to 480 mins by LC-MS/MS analysis; assay type: ADME, organism-based; conditions: in vivo
# [12] = Oral bioavailability in Han-Wistar rat at 10 mg/kg, measured after 15 to 480 mins by LC-MS/MS analysis; assay type: ADME, organism-based; conditions: in vivo
# [13] = Fraction unbound in rat plasma at 10 uM after 4 hrs by rapid equilibrium dialysis method; assay type: ADME, cell-free
# Cytochrome P450 2D6 = Cytochrome P450 2D6 (Homo sapiens, UniProt P10635); test: Inhibition of human CYP2D6; assay type: ADME
# Cytochrome P450 2C9 = Cytochrome P450 2C9 (Homo sapiens, UniProt P11712); test: Inhibition of human CYP2C9; assay type: ADME
# Cytochrome P450 3A4 [14] = biological target: T1, Cytochrome P450 3A4 (Homo sapiens, UniProt P08684); test: Inhibition of human CYP3A4; assay type: ADME
# Cytochrome P450 3A4 [15] = biological target: T1, Cytochrome P450 3A4; test: Time dependent inhibition of human CYP3A4; assay type: ADME
# Mus musculus [16] = test: In vivo inhibition of LRRK2 Ser935 phosphorylation in mouse brain cortex assessed as reduction in ratio of phosphorylated Ser935 to total LRRK2 protein at =>10 mg/kg, po administered 1 hr prior to euthanasia measured by Western blot analysis; assay type: functional
# Rattus norvegicus [17] = test: In vivo inhibition of LRRK2 Ser935 phosphorylation in CD rat brain cortex assessed as reduction in ratio of phosphorylated Ser935 to total LRRK2 protein at => 30 mg/kg, po administered 1 hr post treatment by Western blot analysis; assay type: functional
# Rattus norvegicus [18] = test: In vivo inhibition of LRRK2 Ser935 phosphorylation in CD rat brain cortex assessed as unbound brain concentration causing reduction in ratio of phosphorylated Ser935 to total LRRK2 protein at 1 to 100 mg/kg, po administered 1 hr post treatment by Western blot analysis; assay type: functional
# Rattus norvegicus [19] = test: In vivo inhibition of LRRK2 Ser935 phosphorylation in CD rat brain cortex assessed as unbound plasma concentration causing reduction in ratio of phosphorylated Ser935 to total LRRK2 protein at 1 to 100 mg/kg, po administered 1 hr post treatment by Western blot analysis; assay type: functional
# Mus musculus [20] = test: In vivo inhibition of LRRK2 Ser935 phosphorylation in mouse brain assessed as unbound brain concentration causing reduction in ratio of phosphorylated Ser935 to total LRRK2 protein at 1 to 100 mg/kg, po administered 1 hr post treatment by Western blot analysis; assay type: functional, organism-based
# Mus musculus [21] = test: In vivo inhibition of LRRK2 Ser935 phosphorylation in mouse brain assessed as unbound plasma concentration causing reduction in ratio of phosphorylated Ser935 to total LRRK2 protein at 1 to 100 mg/kg, po administered 1 hr post treatment by Western blot analysis; assay type: functional, organism-based
# [22] = Equilibrium solubility in Water after 24 hrs by HPLC method; assay type: physicochemical
# [23] = Equilibrium solubility in simulated gastric fluid after 24 hrs by HPLC method; assay type: physicochemical
# [24] = Equilibrium solubility in fasted state simulated intestinal fluid after 24 hrs by HPLC method; assay type: physicochemical
# [25] = Equilibrium solubility in pH 6.5 Phosphate buffer after 24 hrs by HPLC method; assay type: physicochemical
# [26] = Equilibrium solubility in fed state simulated intestinal fluid after 24 hrs by HPLC method; assay type: physicochemical
# [27] = Equilibrium solubility in pH 5 acetate buffer after 24 hrs by HPLC method; assay type: physicochemical
# T1 sequence (P08684 whole entry): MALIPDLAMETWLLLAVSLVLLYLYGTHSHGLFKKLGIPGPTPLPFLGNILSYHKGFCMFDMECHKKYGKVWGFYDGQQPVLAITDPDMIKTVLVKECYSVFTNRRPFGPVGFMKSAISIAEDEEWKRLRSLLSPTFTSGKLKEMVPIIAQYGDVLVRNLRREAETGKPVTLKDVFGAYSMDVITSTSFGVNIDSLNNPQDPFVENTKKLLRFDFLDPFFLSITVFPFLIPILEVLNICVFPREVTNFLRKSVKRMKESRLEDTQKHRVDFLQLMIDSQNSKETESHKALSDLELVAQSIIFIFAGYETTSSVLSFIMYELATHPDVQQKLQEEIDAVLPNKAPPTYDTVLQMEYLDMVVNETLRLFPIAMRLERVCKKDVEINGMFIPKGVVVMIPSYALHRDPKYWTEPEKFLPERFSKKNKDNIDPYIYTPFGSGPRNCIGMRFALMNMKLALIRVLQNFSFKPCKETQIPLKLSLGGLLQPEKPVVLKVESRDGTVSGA
# Chain of Cytochrome P450 2D6 (P10635 whole entry): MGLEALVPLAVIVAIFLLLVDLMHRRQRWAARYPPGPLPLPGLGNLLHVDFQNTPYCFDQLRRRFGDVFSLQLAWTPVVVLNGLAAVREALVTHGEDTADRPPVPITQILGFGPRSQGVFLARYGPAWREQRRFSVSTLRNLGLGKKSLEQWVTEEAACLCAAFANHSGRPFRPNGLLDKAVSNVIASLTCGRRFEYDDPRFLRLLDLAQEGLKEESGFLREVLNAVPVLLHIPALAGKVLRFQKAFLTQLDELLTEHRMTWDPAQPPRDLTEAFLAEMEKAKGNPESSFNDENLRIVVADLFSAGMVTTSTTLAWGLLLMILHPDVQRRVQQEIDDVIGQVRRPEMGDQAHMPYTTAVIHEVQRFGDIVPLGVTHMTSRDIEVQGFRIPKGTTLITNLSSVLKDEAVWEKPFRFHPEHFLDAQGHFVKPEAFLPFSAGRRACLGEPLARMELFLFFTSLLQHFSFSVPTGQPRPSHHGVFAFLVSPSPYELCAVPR
# Chain of Cytochrome P450 2C9 (P11712 whole entry): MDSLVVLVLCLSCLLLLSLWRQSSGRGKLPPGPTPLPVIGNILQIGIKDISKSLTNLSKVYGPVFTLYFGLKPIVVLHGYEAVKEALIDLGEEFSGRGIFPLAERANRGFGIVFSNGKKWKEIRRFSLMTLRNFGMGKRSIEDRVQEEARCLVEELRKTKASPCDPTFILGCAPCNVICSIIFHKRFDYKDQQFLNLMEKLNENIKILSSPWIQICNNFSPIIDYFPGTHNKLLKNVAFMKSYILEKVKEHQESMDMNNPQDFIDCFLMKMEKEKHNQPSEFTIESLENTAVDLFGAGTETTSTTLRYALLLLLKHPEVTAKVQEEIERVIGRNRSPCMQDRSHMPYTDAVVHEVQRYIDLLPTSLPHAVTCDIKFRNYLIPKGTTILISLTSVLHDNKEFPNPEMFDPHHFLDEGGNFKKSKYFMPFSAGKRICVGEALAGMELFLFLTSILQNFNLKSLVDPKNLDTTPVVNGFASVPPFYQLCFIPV
smiles,measurement,setting,value
C[C@@H]1CN(c2cc(-c3n[nH]c4ccc(OC5(C)CC5)cc34)ncn2)C[C@H](C)O1 [MLi-2],hepatocyte CLint at 1 µM,[1],8 µL/min/1e6 cells
same,hepatocyte CLint at 1 µM,[2],15 µL/min/1e6 cells
same,AUC(0-t) at 8 h,[3],0.66 µM·h
same,C0,[4],1170 nM
same,half-life,[5],108 min
same,MRT,[6],1.7 h
same,clearance,[7],153 mL/min/kg
same,AUC(0-t) at 8 h,[8],1.3 µM·h
same,Cmax,[9],480 nM
same,Tmax,[10],1.3 h
same,MRT,[11],4 h
same,bioavailability,[12],39%
same,"fraction unbound at 4 h, 10 µM",[13],0.012
same,IC50,Cytochrome P450 2D6,> 50 µM
same,IC50,Cytochrome P450 2C9,> 50 µM
same,IC50,Cytochrome P450 3A4 [14],> 50 µM
same,TDI,Cytochrome P450 3A4 [15],Not Active
same,inhibition (INH),Mus musculus [16],>90%
same,inhibition (INH),Rattus norvegicus [17],>90%
same,fIC50,Rattus norvegicus [18],0.18 nM
same,fIC50,Rattus norvegicus [19],0.2 nM
same,IC50,Mus musculus [20],0.8 nM
same,IC50,Mus musculus [21],1.1 nM
same,solubility thermodynamic at 24 h,[22],14 to 38 µg/mL
same,solubility thermodynamic at 24 h,[23],14 to 38 µg/mL
same,solubility thermodynamic at 24 h,[24],14 to 38 µg/mL
same,solubility thermodynamic at 24 h,[25],14 to 38 µg/mL
same,solubility thermodynamic at 24 h,[26],14 to 38 µg/mL
same,solubility thermodynamic at 24 h,[27],14 to 38 µg/mL
